Laboratory results from US10206388B2, “Formulation component” (SYNGENTA LIMITED, priority 2011, dated 2019).

How the values were obtained:
Assay type in all cases: in vivo
[1] = test system: Brachiaria platyphylla (BRAPL); assay: Glasshouse weed test, mesotrione with adjuvants; details: Table 10, Example 7: mesotrione 60 or 120 g/ha; adjuvant 0.2% v/v; Tetronic 1107 in spray tank; mean over two rates, three replicates, 7, 14 and 20 days
Method: (§1) The aromatic ester Finsolv® TN (C12-C15 alkyl benzoate) was tested in a glasshouse against three weed species using the herbicide mesotrione. An agrochemical composition was prepared containing 0.2% v/v of the adjuvant in a track sprayer and was applied at a volume of 200 liters per hectare. Mesotrione was applied at either 60 or 120 grams of pesticide per hectare on weeds which had been grown to the 1.3 or 1.4 leaf stage. The weed species were Xanthium strumarium (XANST), Brachiaria platyphylla (BRAPL), and Digitaria sanguinalis (DIGSA). The commercially available surfactant Tetronic® 1107 was used in the spray tank at a concentration of 0.036 g/l alongside the lower concentration of mesotrione and at a concentration of 0.072 g/l at the higher concentration of mesotrione.
(§2) Each spray test was replicated three times. The efficacy of the herbicide was assessed visually and expressed as a percentage of the leaf area killed. Samples were assessed at time periods of 7, 14 and 20 days following application. The results shown in Table 10 below are mean averages over the two rates of mesotrione, three replicates and the three assessment timings, and are compared to the efficacy of mesotrione in the absence of adjuvant and mesotrione in the presence of the well-known adjuvant Tween® 20.

[2] = test system: Digitaria sanguinalis (DIGSA); assay: Glasshouse weed test, mesotrione with adjuvants; details: Table 10, Example 7: mesotrione 60 or 120 g/ha; adjuvant 0.2% v/v; Tetronic 1107 in spray tank; mean over two rates, three replicates, 7, 14 and 20 days
Method: as §1, §2

[3] = test system: Xanthium strumarium (XANST); assay: Glasshouse weed test, mesotrione with adjuvants; details: Table 10, Example 7: mesotrione 60 or 120 g/ha; adjuvant 0.2% v/v; Tetronic 1107 in spray tank; mean over two rates, three replicates, 7, 14 and 20 days
Method: as §1, §2

[4] = test system: three weed species (XANST, BRAPL, DIGSA); assay: Glasshouse weed test, mesotrione with adjuvants, mean across species; details: mean over two rates
Method: as §1, §2
A second experiment was conducted to assess the efficacy of Finsolv® TN as an adjuvant in compositions of mesotrione. This was carried out as outlined above, with the following change: samples were assessed at 6, 14 and 20 days post application.
The results shown in Table 11 below are mean averages over the two rates of mesotrione, three replicates, the three assessment timings, and the three weed species, and are compared to the efficacy of mesotrione in the absence of adjuvant and mesotrione in the presence of the well-known adjuvant Tween® 20.
as §1, with “An” for “The aromatic ester Finsolv® TN (C12-C15 alkyl benzoate) was tested in a glasshouse against three weed species using the herbicide mesotrione. An”
as §2, with “Brij®96. The results shown in Table 16 below are mean averages over the two rates of mesotrione, three replicates, three assessment timings and three weed species. The results are compared to the efficacy of mesotrione in the absence of an adjuvant and mesotrione in the presence of the commercially available adjuvant Brij®96.” for “Tween® 20.”
An agrochemical composition was prepared containing 0.2% v/v of the adjuvant in a track sprayer and was applied at a volume of 200 liters per hectare. The adjuvant oils were emulsified using a small amount of the surfactant Pluronic® PE 10500, which was present in the composition at a concentration of 0.02% v/v. Mesotrione was applied at either 60 or 120 grams of pesticide per hectare on weeds which had been grown to the 1.3 or 1.4 leaf stage. The weed species were Xanthium strumarium (XANST), Brachiaria platyphylla (BRAPL), and Digitaria sanguinalis (DIGSA). […]

[5] = test system: four weed species (POLCO, BRAPL, COMBE, DIGSA); assay: Glasshouse weed test, mesotrione with adjuvants at several rates, mean across species; details: Table 25, Example 21: absence of adjuvant, mesotrione 60 or 120 g/ha, Tetronic 1107, mean over two rates, three replicates, 14 and 21 days
Method: An agrochemical composition was prepared containing either 0.2, 0.1, 0.05 or 0.025% v/v of the adjuvant in a track sprayer and was applied at a volume of 200 liters per hectare. The commercial adjuvant Tween20® was applied at 0.2% v/v. Mesotrione was applied at either 60 or 120 grams of pesticide per hectare on weeds which had been grown to the 1.3 or 1.4 leaf stage. The commercially available surfactant Tetronic® 1107 was used in the spray tank at a concentration of 0.036 g/l alongside the lower concentration of mesotrione and at a concentration of 0.072 g/l at the higher concentration of mesotrione. The weed species were Polygonum convolvulus (POLCO) 13, Brachiaria platyphylla (BRAPL) 12-13, Comelina berghalensis (COMBE) 12 and Digitaria sanguinalis (DIGSA) 13.
Each spray test was replicated three times. The efficacy of the herbicide was assessed visually and expressed as a percentage of the leaf area killed. Samples were assessed at time periods of 14 and 21 days following application. The results shown in Table 25 below are mean averages over the two rates of mesotrione, three replicates, four weed species and the two assessment timings. The adjuvants are compared to the efficacy of mesotrione in the absence of adjuvant and mesotrione in the presence of the well-known adjuvant Tween®20.

Structure (SMILES): CS(=O)(=O)c1ccc(C(=O)C2C(=O)CCCC2=O)c([N+](=O)[O-])c1 [Mesotrione, mesotrione]
- Mean percentage kill BRAPL [1]: 5.3 B %
- Mean percentage kill DIGSA [2]: 20.0 B %
- Mean percentage kill XANST [3]: 36.7 A %
- Mean percentage kill, Mean across species ([4]; Table 10, Example 7: mesotrione 60 or 120 g/ha, adjuvant 0.2% v/v, Tetronic 1107 in spray tank, three replicates, 7, 14 and 20 days): 19.9 B %
- Mean percentage kill, Mean across species ([4]; Table 11, Example 7 second experiment: mesotrione 60 or 120 g/ha, adjuvant 0.2% v/v, three replicates, 6, 14 and 20 days, three weed species): 33.0 B %
- Mean percentage kill, Mean across species ([4]; Table 16, Example 12: mesotrione 60 or 120 g/ha, adjuvant 0.2% v/v, Tetronic 1107 in spray tank, three replicates, 7, 14 and 20 days, three weed species): 18.0 C %
- Mean percentage kill, Mean across species ([4]; Table 21, Example 17: mesotrione 60 or 120 g/ha, adjuvant 0.2% v/v emulsified with Pluronic PE 10500 0.02% v/v, Tetronic 1107, three replicates, 14 and 21 days, three weed species): 19.9C %
- Mean percentage kill, Mean across species ([4]; Table 29, Example 26: mesotrione 60 or 120 g/ha, adjuvant 0.2% v/v, Tetronic 1107, three replicates, 14 and 21 days, three weed species): 39.4C %
- Mean percentage kill, Mean across species ([4]; Table 35, Example 35: mesotrione 60 or 120 g/ha, adjuvant 0.2% v/v, Tetronic 1107, three replicates, 14 and 21 days, three weed species): 33.8B %
- Mean percentage kill, Mean across species [5]: 33.7D %
